Test results as given in US6525001B1, “Substituted pyrimidine and pyridine herbicides” (Mid-American Commercialization Corporation, priority 1997, dated 2003).

Key:
Test in all cases: Test B pre-/postemergence
Format in all cases: in vivo
Design in all cases: key: 0 is no effect; 10 is complete control
[1] = tested on: blackgrass (Alopecurus myosuroides)
In short: (§1)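 Compounds in a surfactant-containing, non-phytotoxic solvent blend are applied to freshly planted seed (preemergence) and, concurrently, to seedlings of 2 to 18 cm at 1–4 leaves (postemergence). Plants stay in the greenhouse twelve to sixteen days and are then scored visually from 0 (no effect) to 10 (complete control).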

[2] = tested on: broadleaf signalgrass (Brachiaria decumbens)
In short: as §1

[3] = tested on: cocklebur (Xanthium strumarium)
In short: as §1

[4] = tested on: momingglory (Ipomoea hederacea)
In short: as §1

[5] = tested on: pigweed (Amaranthus retroflexus)
In short: as §1

[6] = Preemergence, Rate 62 g/ha, scale of 0 to 10

| Structure (SMILES) | Plant response rating, Blackgrass ([1]; Rate 250 g/ha, Postemergence) | Plant response rating, Blackgrass ([1]; Rate 250 g/ha, Preemergence) | Plant response rating, Blackgrass ([1]; Rate 500 g/ha, Postemergence) | Plant response rating, Blackgrass ([1]; Rate 500 g/ha, Preemergence) | B. signalgrass plant response rating ([2]; Rate 62 g/ha, Preemergence) | Plant response rating, B. signalgrass ([2]; Rate 250 g/ha, Postemergence) | Plant response rating, B. signalgrass ([2]; Rate 250 g/ha, Preemergence) | Plant response rating, B. signalgrass ([2]; Rate 500 g/ha, Postemergence) | Plant response rating, B. signalgrass ([2]; Rate 500 g/ha, Preemergence) | Plant response rating, Cocklebur ([3]; Rate 250 g/ha, Postemergence) | Plant response rating, Cocklebur ([3]; Rate 250 g/ha, Preemergence) | Plant response rating, Cocklebur ([3]; Rate 500 g/ha, Postemergence) | Plant response rating, Cocklebur ([3]; Rate 500 g/ha, Preemergence) | Plant response rating, Morningglory ([4]; Rate 250 g/ha, Postemergence) | Plant response rating, Morningglory ([4]; Rate 250 g/ha, Preemergence) | Plant response rating, Morningglory ([4]; Rate 500 g/ha, Postemergence) | Plant response rating, Morningglory ([4]; Rate 500 g/ha, Preemergence) | Plant response rating, Redroot pigweed ([5]; Rate 250 g/ha, Postemergence) | Plant response rating, Redroot pigweed ([5]; Rate 250 g/ha, Preemergence) | Plant response rating, Redroot pigweed ([5]; Rate 500 g/ha, Postemergence) | also measured |
| --- | --- | --- | --- | --- | --- | --- | --- | --- | --- | --- | --- | --- | --- | --- | --- | --- | --- | --- | --- | --- | --- |
| Cc1cnc(-c2ccc(C(F)(F)F)cc2)nc1Cn1cc(I)cn1 [Compound 12] | 4 | 6 | 4 | 6 | 3 | 7 | 8 | 7 | 9 | 8 | 2 | 8 | 3 | 9 | 10 | 9 | 10 | 9 | 9 | 9 | Plant response rating, Blackgrass ([1]; Rate 62 g/ha, Postemergence): 2; Blackgrass plant response rating ([1]; Rate 62 g/ha, Preemergence): 1; Plant response rating, Blackgrass ([1]; Rate 125 g/ha, Postemergence): 3; Blackgrass plant response rating ([1]; Rate 125 g/ha, Preemergence): 4; Plant response rating, B. signalgrass ([2]; Rate 62 g/ha, Postemergence): 4; Plant response rating, B. signalgrass ([2]; Rate 125 g/ha, Postemergence): 5; B. signalgrass plant response rating ([2]; Rate 125 g/ha, Preemergence): 8; Cocklebur plant response rating ([3]; Rate 62 g/ha, Preemergence): 0; Plant response rating, Cocklebur ([3]; Rate 125 g/ha, Postemergence): 8; Plant response rating, Morningglory ([4]; Rate 62 g/ha, Postemergence): 9; Morningglory plant response rating ([4]; Rate 62 g/ha, Preemergence): 4; Plant response rating, Morningglory ([4]; Rate 125 g/ha, Postemergence): 9; Morningglory plant response rating ([4]; Rate 125 g/ha, Preemergence): 6; Plant response rating, Redroot pigweed ([5]; Rate 62 g/ha, Postemergence): 9; Redroot pigweed plant response rating ([5]; Rate 62 g/ha, Preemergence): 7; Plant response rating, Redroot pigweed ([5]; Rate 125 g/ha, Postemergence): 9; Redroot pigweed plant response rating ([5]; Rate 125 g/ha, Preemergence): 9; Plant response rating, Redroot pigweed ([5]; Rate 500 g/ha, Preemergence): 9 |
| Cc1cnc(-n2ccc(C(F)(F)C(F)(F)F)n2)nc1C(=O)c1cccc(C(F)(F)F)c1 [Compound 68] | 4 | 7 | 5 | 7 | 5 | 3 | 9 | 5 | 10 | 7 | 2 | 7 | 8 | 10 | 5 | 10 | 9 | 10 | 10 | 10 | Plant response rating, Blackgrass [1, 6]: 3; Blackgrass plant response rating ([1]; Rate 62 g/ha, Postemergence): 2; Blackgrass plant response rating ([1]; Rate 125 g/ha, Postemergence): 3; Plant response rating, Blackgrass ([1]; Rate 125 g/ha, Preemergence): 5; B. signalgrass plant response rating ([2]; Rate 62 g/ha, Postemergence): 2; B. signalgrass plant response rating ([2]; Rate 125 g/ha, Postemergence): 3; Plant response rating, B. signalgrass ([2]; Rate 125 g/ha, Preemergence): 8; Plant response rating, Cocklebur [3, 6]: 0; Cocklebur plant response rating ([3]; Rate 62 g/ha, Postemergence): 3; Plant response rating, Morningglory [4, 6]: 3; Morningglory plant response rating ([4]; Rate 62 g/ha, Postemergence): 2; Morningglory plant response rating ([4]; Rate 125 g/ha, Postemergence): 8; Plant response rating, Morningglory ([4]; Rate 125 g/ha, Preemergence): 3; Plant response rating, Redroot pigweed [5, 6]: 8; Redroot pigweed plant response rating ([5]; Rate 62 g/ha, Postemergence): 9; Redroot pigweed plant response rating ([5]; Rate 125 g/ha, Postemergence): 10; Plant response rating, Redroot pigweed ([5]; Rate 125 g/ha, Preemergence): 9; Plant response rating, Redroot pigweed ([5]; Rate 500 g/ha, Preemergence): 10 |
| Cc1cnc(-n2ccc(C(F)(F)F)n2)nc1C(=O)c1ccc(C(F)(F)F)cc1 [Compound 65] | 0 | 0 | 0 | 0 | 0 | 1 | 1 | 1 | 2 | 1 | 0 | 2 | 0 | 8 | 0 | 10 | 5 | 6 | 0 | 7 | Plant response rating, Blackgrass [1, 6]: 0; Blackgrass plant response rating ([1]; Rate 62 g/ha, Postemergence): 0; Blackgrass plant response rating ([1]; Rate 125 g/ha, Postemergence): 0; Plant response rating, Blackgrass ([1]; Rate 125 g/ha, Preemergence): 0; B. signalgrass plant response rating ([2]; Rate 62 g/ha, Postemergence): 1; B. signalgrass plant response rating ([2]; Rate 125 g/ha, Postemergence): 1; Plant response rating, B. signalgrass ([2]; Rate 125 g/ha, Preemergence): 0; Plant response rating, Cocklebur [3, 6]: 0; Cocklebur plant response rating ([3]; Rate 62 g/ha, Postemergence): 1; Cocklebur plant response rating ([3]; Rate 125 g/ha, Postemergence): 1; Plant response rating, Cocklebur ([3]; Rate 125 g/ha, Preemergence): 0; Plant response rating, Morningglory [4, 6]: 0; Morningglory plant response rating ([4]; Rate 125 g/ha, Postemergence): 1; Plant response rating, Morningglory ([4]; Rate 125 g/ha, Preemergence): 0; Plant response rating, Redroot pigweed [5, 6]: 0; Redroot pigweed plant response rating ([5]; Rate 62 g/ha, Postemergence): 2; Redroot pigweed plant response rating ([5]; Rate 125 g/ha, Postemergence): 3; Plant response rating, Redroot pigweed ([5]; Rate 125 g/ha, Preemergence): 0; Plant response rating, Redroot pigweed ([5]; Rate 500 g/ha, Preemergence): 0 |
